Assay: recombinant barcode read abundance after kanamycin selection (control-corrected) (log10(CPM+1)); higher = more efficient recombination; sequences stand for … in AGTGCAGAGAAAATCGGCCAGTTTTCTCTGCCTGCAGTCCGCATGCCGT…AGATTTATGCAGCGGACTGCCTTTCTCCCAAAGTGATAAACCGGACAGTATCATGGACCGGTTTTCCCGGTAATCCGTATTTGCAAGGTTGGTTTCACT; site = the 11-nt target
Procedure, shortened: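 Recombination efficiency draws on barcodes counted at recombinant junctions in a pooled E. coli screen of targets paired with IS621 bridge RNA target-binding loops. The counts were converted to counts per million, averaged and corrected against the chloramphenicol/ampicillin LB agar control, then reported as log10(CPM+1). Selection plates held chloramphenicol/ampicillin/kanamycin with 0.1 mM IPTG, with two replicates per condition.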
In the case of “TACTCTTCTTGGGTTCTAACCTGTTGCCT (site GGTCAACCTCC)”, the “recombinant barcode read abundance (log10)” value is reported as 0.0368.
In the case of “TACTCTTCTTGGGTTCTAACCTGTTGCCT (site TACTCTTCTAG)”, the “recombinant barcode read abundance (log10)” value is reported as 0.279.
In the case of “TACTGAACTTGGGTTCTAACCTGTTGCCT (site TACTAAACTAG)”, the “recombinant barcode read abundance (log10)” value is reported as 0.0356.
With “TACTGAACTTGGGTTCTAACCTGTTGCCT (site TACTCAACTAG)” the “recombinant barcode read abundance (log10)” value was 0.104.
For “TACTGAACTTGGGTTCTAACCTGTTGCCT (site TACTGAACTAG)”, the “recombinant barcode read abundance (log10)” value was 0.159.
For “TACTGAACTTGGGTTCTAACCTGTTGCCT (site TACTTAACTAG)”, the “recombinant barcode read abundance (log10)” value was 0.305.
With “TACTGGGCTTGGGTTCTAACCTGTTGCTG (site TACTGGGCTCA)” the “recombinant barcode read abundance (log10)” value was 0.684.
For “TACTGGGCTTGGGTTCTAACCTGTTGCTG (site TACTGGGCTCC)”, the “recombinant barcode read abundance (log10)” value was 0.0895.
With “TAGAACACTTGGGTTCTAACCTGTTGCCT (site AAGAACACTAG)” the “recombinant barcode read abundance (log10)” value was 0.0955.
In the case of “TAGAACACTTGGGTTCTAACCTGTTGCCT (site CAGAACACTAG)”, the “recombinant barcode read abundance (log10)” value is reported as 0.256.
For “TAGAACACTTGGGTTCTAACCTGTTGCCT (site GAGAACACTAG)”, the “recombinant barcode read abundance (log10)” value was 0.108.
With “TAGAACACTTGGGTTCTAACCTGTTGCCT (site TAGAACACTAG)” the “recombinant barcode read abundance (log10)” value was 0.992.
With “TAGAACACTTGGGTTCTAACCTGTTGCTA (site TAGAACACTAA)” the “recombinant barcode read abundance (log10)” value was 0.237.
In the case of “TAGAACACTTGGGTTCTAACCTGTTGCTA (site TAGAACACTCA)”, the “recombinant barcode read abundance (log10)” value is reported as 0.109.
With “TAGAACACTTGGGTTCTAACCTGTTGCTA (site TAGAACACTGA)” the “recombinant barcode read abundance (log10)” value was 0.71.
For “TAGAACACTTGGGTTCTAACCTGTTGCTA (site TAGAACACTTA)”, the “recombinant barcode read abundance (log10)” value was 0.807.
For “TAGAACACTTGGGTTCTAACCTGTTGCTG (site TAGAACACTAA)”, the “recombinant barcode read abundance (log10)” value was 0.106.
In the case of “TAGAACACTTGGGTTCTAACCTGTTGCTG (site TAGAACACTCA)”, the “recombinant barcode read abundance (log10)” value is reported as 1.
In the case of “TAGAACACTTGGGTTCTAACCTGTTGCTG (site TAGAACACTGA)”, the “recombinant barcode read abundance (log10)” value is reported as 0.132.
With “TAGAACACTTGGGTTCTAACCTGTTGCTG (site TAGAACACTTA)” the “recombinant barcode read abundance (log10)” value was 0.0894.
For “TAGAACTCTTGGGTTCTAACCTGTTGCCG (site TAGAACTCTAG)”, the “recombinant barcode read abundance (log10)” value was 0.242.
For “TAGAACTCTTGGGTTCTAACCTGTTGCCG (site TAGAACTCTCG)”, the “recombinant barcode read abundance (log10)” value was 0.591.
In the case of “TAGAACTCTTGGGTTCTAACCTGTTGCCG (site TAGAACTCTGG)”, the “recombinant barcode read abundance (log10)” value is reported as 0.0844.
With “TAGAACTCTTGGGTTCTAACCTGTTGCCG (site TAGAACTCTTG)” the “recombinant barcode read abundance (log10)” value was 0.127.
With “TAGAAGACTTGGGTTCTAACCTGTTGCTT (site TAGAAGACTAA)” the “recombinant barcode read abundance (log10)” value was 0.37.
For “TAGAAGACTTGGGTTCTAACCTGTTGCTT (site TAGAAGACTCA)”, the “recombinant barcode read abundance (log10)” value was 0.282.
For “TAGAAGACTTGGGTTCTAACCTGTTGCTT (site TAGAAGACTGA)”, the “recombinant barcode read abundance (log10)” value was 0.0968.
In the case of “TAGAAGACTTGGGTTCTAACCTGTTGCTT (site TAGAAGACTTA)”, the “recombinant barcode read abundance (log10)” value is reported as 0.399.
In the case of “TAGAAGGCTTGGGTTCTAACCTGTTGCTA (site TAGAAGCCTTA)”, the “recombinant barcode read abundance (log10)” value is reported as 0.0194.
In the case of “TAGAAGGCTTGGGTTCTAACCTGTTGCTA (site TAGAAGGCTTA)”, the “recombinant barcode read abundance (log10)” value is reported as 1.15.
In the case of “TAGAAGTCTTGGGTTCTAACCTGTTGCTG (site AAGATGTCTCA)”, the “recombinant barcode read abundance (log10)” value is reported as 0.122.
For “TAGAAGTCTTGGGTTCTAACCTGTTGCTG (site TAGAAGTCTCA)”, the “recombinant barcode read abundance (log10)” value was 1.46.
With “TAGAATACTTGGGTTCTAACCTGTTGCGG (site TAGAATACTCC)” the “recombinant barcode read abundance (log10)” value was 1.06.
For “TAGAATACTTGGGTTCTAACCTGTTGCGG (site TATAATACTCC)”, the “recombinant barcode read abundance (log10)” value was 0.0627.
For “TAGAATCCTTGGGTTCTAACCTGTTGCAC (site TAGAATCCTAT)”, the “recombinant barcode read abundance (log10)” value was 0.117.
With “TAGAATCCTTGGGTTCTAACCTGTTGCAC (site TAGAATCCTCT)” the “recombinant barcode read abundance (log10)” value was 0.152.
For “TAGAATCCTTGGGTTCTAACCTGTTGCAC (site TAGAATCCTGT)”, the “recombinant barcode read abundance (log10)” value was 0.152.
For “TAGAATCCTTGGGTTCTAACCTGTTGCAC (site TAGAATCCTTT)”, the “recombinant barcode read abundance (log10)” value was 0.103.
With “TAGACAGCTTGGGTTCTAACCTGTTGCCT (site TAAACAGCTAG)” the “recombinant barcode read abundance (log10)” value was 0.143.
With “TAGACAGCTTGGGTTCTAACCTGTTGCCT (site TACACAGCTAG)” the “recombinant barcode read abundance (log10)” value was 0.122.
In the case of “TAGACAGCTTGGGTTCTAACCTGTTGCCT (site TAGACAGCTAG)”, the “recombinant barcode read abundance (log10)” value is reported as 0.416.
With “TAGACAGCTTGGGTTCTAACCTGTTGCCT (site TATACAGCTAG)” the “recombinant barcode read abundance (log10)” value was 0.0229.
For “TAGACGACTTGGGTTCTAACCTGTTGCAC (site TAGACGACTGT)”, the “recombinant barcode read abundance (log10)” value was 1.57.
For “TAGACGACTTGGGTTCTAACCTGTTGCAC (site TAGCCGTCTGT)”, the “recombinant barcode read abundance (log10)” value was 0.173.
In the case of “TAGACGACTTGGGTTCTAACCTGTTGCTT (site TAGACGACTAA)”, the “recombinant barcode read abundance (log10)” value is reported as 0.829.
In the case of “TAGACGACTTGGGTTCTAACCTGTTGCTT (site TAGCCGACTAA)”, the “recombinant barcode read abundance (log10)” value is reported as 0.0758.
With “TAGACGACTTGGGTTCTAACCTGTTGCTT (site TAGGCGACTAA)” the “recombinant barcode read abundance (log10)” value was 0.0736.
With “TAGACGACTTGGGTTCTAACCTGTTGCTT (site TAGTCGACTAA)” the “recombinant barcode read abundance (log10)” value was 0.086.
For “TAGACTACTTGGGTTCTAACCTGTTGCCT (site CAGACTCCTAG)”, the “recombinant barcode read abundance (log10)” value was 0.055.
With “TAGACTACTTGGGTTCTAACCTGTTGCCT (site TAGACTACTAG)” the “recombinant barcode read abundance (log10)” value was 0.521.
In the case of “TAGACTACTTGGGTTCTAACCTGTTGCTC (site TAGACTACTAA)”, the “recombinant barcode read abundance (log10)” value is reported as 0.
For “TAGACTACTTGGGTTCTAACCTGTTGCTC (site TAGACTACTCA)”, the “recombinant barcode read abundance (log10)” value was 0.082.
With “TAGACTACTTGGGTTCTAACCTGTTGCTC (site TAGACTACTGA)” the “recombinant barcode read abundance (log10)” value was 0.123.
For “TAGACTACTTGGGTTCTAACCTGTTGCTC (site TAGACTACTTA)”, the “recombinant barcode read abundance (log10)” value was 0.0392.
With “TAGACTACTTGGGTTCTAACCTGTTGCTG (site TAGACTACTAA)” the “recombinant barcode read abundance (log10)” value was 0.0928.
In the case of “TAGACTACTTGGGTTCTAACCTGTTGCTG (site TAGACTACTCA)”, the “recombinant barcode read abundance (log10)” value is reported as 0.609.
For “TAGACTACTTGGGTTCTAACCTGTTGCTG (site TAGACTACTGA)”, the “recombinant barcode read abundance (log10)” value was 0.215.
With “TAGACTACTTGGGTTCTAACCTGTTGCTG (site TAGACTACTTA)” the “recombinant barcode read abundance (log10)” value was 0.0595.
In the case of “TAGAGCACTTGGGTTCTAACCTGTTGCCT (site AAGAGCACTAG)”, the “recombinant barcode read abundance (log10)” value is reported as 0.057.
For “TAGAGCACTTGGGTTCTAACCTGTTGCCT (site CAGAGCACTAG)”, the “recombinant barcode read abundance (log10)” value was 0.114.
In the case of “TAGAGCACTTGGGTTCTAACCTGTTGCCT (site GAGAGCACTAG)”, the “recombinant barcode read abundance (log10)” value is reported as 0.0873.
For “TAGAGCACTTGGGTTCTAACCTGTTGCCT (site TAGAGCACTAG)”, the “recombinant barcode read abundance (log10)” value was 0.644.
For “TAGATCACTTGGGTTCTAACCTGTTGCAT (site TAGATCACTAT)”, the “recombinant barcode read abundance (log10)” value was 0.629.
In the case of “TAGATCACTTGGGTTCTAACCTGTTGCAT (site TAGCTCACTAT)”, the “recombinant barcode read abundance (log10)” value is reported as 0.408.
For “TAGATCACTTGGGTTCTAACCTGTTGCAT (site TAGGTCACTAT)”, the “recombinant barcode read abundance (log10)” value was 0.0386.
With “TAGATCACTTGGGTTCTAACCTGTTGCAT (site TAGTTCACTAT)” the “recombinant barcode read abundance (log10)” value was 0.0464.
In the case of “TAGATTACTTGGGTTCTAACCTGTTGCCT (site TAAAATACTAG)”, the “recombinant barcode read abundance (log10)” value is reported as 0.12.
In the case of “TAGATTACTTGGGTTCTAACCTGTTGCCT (site TAGATTACTAG)”, the “recombinant barcode read abundance (log10)” value is reported as 0.178.
In the case of “TAGATTCCTTGGGTTCTAACCTGTTGCAA (site CGACAGTCTAG)”, the “recombinant barcode read abundance (log10)” value is reported as 0.102.
In the case of “TAGATTCCTTGGGTTCTAACCTGTTGCAA (site TAGATTCCTTT)”, the “recombinant barcode read abundance (log10)” value is reported as 0.0712.
With “TAGCACCCTTGGGTTCTAACCTGTTGCCA (site TAGCACCCTAG)” the “recombinant barcode read abundance (log10)” value was 0.394.
With “TAGCACCCTTGGGTTCTAACCTGTTGCCA (site TAGCACCCTCG)” the “recombinant barcode read abundance (log10)” value was 0.218.
For “TAGCACCCTTGGGTTCTAACCTGTTGCCA (site TAGCACCCTGG)”, the “recombinant barcode read abundance (log10)” value was 0.156.
With “TAGCACCCTTGGGTTCTAACCTGTTGCCA (site TAGCACCCTTG)” the “recombinant barcode read abundance (log10)” value was 0.965.
In the case of “TAGCACCCTTGGGTTCTAACCTGTTGCCT (site TAGCACCCTAG)”, the “recombinant barcode read abundance (log10)” value is reported as 1.79.
For “TAGCACCCTTGGGTTCTAACCTGTTGCCT (site TAGCACCCTCG)”, the “recombinant barcode read abundance (log10)” value was 0.0128.
With “TAGCACCCTTGGGTTCTAACCTGTTGCCT (site TAGCACCCTGG)” the “recombinant barcode read abundance (log10)” value was 0.671.
In the case of “TAGCACCCTTGGGTTCTAACCTGTTGCCT (site TAGCACCCTTG)”, the “recombinant barcode read abundance (log10)” value is reported as 0.144.
With “TAGCATACTTGGGTTCTAACCTGTTGCCT (site TAGCATACTAG)” the “recombinant barcode read abundance (log10)” value was 1.37.
With “TAGCATACTTGGGTTCTAACCTGTTGCCT (site TAGCATACTCG)” the “recombinant barcode read abundance (log10)” value was 0.112.
For “TAGCATACTTGGGTTCTAACCTGTTGCCT (site TAGCATACTGG)”, the “recombinant barcode read abundance (log10)” value was 0.308.
With “TAGCATACTTGGGTTCTAACCTGTTGCCT (site TAGCATACTTG)” the “recombinant barcode read abundance (log10)” value was 0.0681.
For “TAGCCCACTTGGGTTCTAACCTGTTGCGG (site TAGCACACTCC)”, the “recombinant barcode read abundance (log10)” value was 0.0811.
With “TAGCCCACTTGGGTTCTAACCTGTTGCGG (site TAGCCCACTCC)” the “recombinant barcode read abundance (log10)” value was 1.35.
In the case of “TAGCCCACTTGGGTTCTAACCTGTTGCGG (site TAGCGCACTCC)”, the “recombinant barcode read abundance (log10)” value is reported as 0.0188.
For “TAGCCCACTTGGGTTCTAACCTGTTGCGG (site TAGCTCACTCC)”, the “recombinant barcode read abundance (log10)” value was 0.393.
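Also: IS621 recombinase and bridge RNA in Escherichia coli cells.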
